From PMC9050161 (RSC Advances, 2020)

How the values were obtained:
[1] = Chemical inhibition assay, glucuronidation of PI-103 in pooled HLM; type: in vitro ADME, human
[2] = Chemical inhibition assay, phase I metabolism of PI-103 in pooled HLM; type: in vitro ADME, human; conditions: inhibitor 0.1 μM (CYP1A2 inhibitor)

| SMILES | activity of PI-103 glucuronidation in HLM ([1]; inhibitor 10 μM) | also measured |
| --- | --- | --- |
| C[C@H](CCC(=O)O)[C@H]1CC[C@H]2[C@@H]3[C@H](O)C[C@@H]4C[C@H](O)CC[C@]4(C)[C@H]3CC[C@]12C [CDCA] |  | activity of PI-103 glucuronidation in HLM ([1]; inhibitor 20 μM): no changes |
| CN(C)CCC=C1c2ccccc2CCc2ccccc21 [amitriptyline] | no changes |  |
| C[C@]12CC[C@@H](O)C[C@@H]1CC[C@@H]1[C@@H]2CC[C@]2(C)C(=O)CC[C@@H]12 [androsterone] | 69.36 % of the control values |  |
| Cc1cn(-c2cc(NC(=O)c3ccc(C)c(Nc4nccc(-c5cccnc5)n4)c3)cc(C(F)(F)F)c2)cn1 [nilotinib] | 82.37 % of the control values |  |
| O=c1cc(-c2ccccc2)oc2c1ccc1ccccc12 [α-naphthoflavone] |  | remaining activity of PI-103 phase I metabolism in HLM [2]: 53.37 % of the control values |
